What follows are molecules tested against T1, CCR(9) (Homo sapiens, UniProt P51686) (assay: serum chemotaxis (migration) assay, MOLT-4 cells in human serum, TECK). Conditions: read-out: A2.
T1 construct: CCR(9)-expressing cells such as T cell line MOLT-4 cells; host or cells: MOLT-4 cells
T1 sequence (P51686 1-369): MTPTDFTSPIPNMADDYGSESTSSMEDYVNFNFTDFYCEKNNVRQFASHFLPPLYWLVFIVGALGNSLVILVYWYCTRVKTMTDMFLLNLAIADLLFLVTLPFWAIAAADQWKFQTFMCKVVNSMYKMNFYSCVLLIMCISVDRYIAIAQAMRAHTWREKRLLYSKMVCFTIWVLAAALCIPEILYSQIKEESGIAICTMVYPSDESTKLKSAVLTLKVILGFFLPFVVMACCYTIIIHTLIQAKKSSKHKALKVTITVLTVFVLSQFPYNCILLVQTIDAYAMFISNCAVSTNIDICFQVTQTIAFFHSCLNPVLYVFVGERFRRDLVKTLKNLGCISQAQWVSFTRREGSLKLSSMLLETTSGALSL
Format: cell-based
Procedure: In vitro cell chemotaxis assays can be performed (but are not limited to this format) using the 96-well microchamber (called ChemoTX™). The ChemoTX™ system is well known to those skilled in the art as a type of chemotactic/cell migration instrument. In this assay, CCR(9)-expressing cells (such as MOLT-4) are first incubated with a compound of interest, such as a possible CCR(9) antagonist at increasing concentrations. Typically, fifty thousand cells per well are used, but the amount can range from 10^3-10^6 cells per well. The chemokine ligand (for example, CCR(9) ligand TECK, typically at 50 nM (but can range from 5-100 nM)), is placed at the lower chamber and the migration apparatus is assembled. Twenty microliters of test compound-treated cells are then placed onto the membrane. Migration is allowed to take place at 37° C. for a period of time, typically 2.5 hours for CCR(9). At the end of the incubation, the number of cells that migrated across the membrane into the lower chamber is then quantified. The efficacy of a compound as an inhibitor of chemokine-mediated cell migration can be calculated as an IC50 (the concentration needed to reduce cell migration by 50%) or IC90 (for 90% inhibition).
MOLT-4 cells were obtained from the American Type Culture Collection (Manassas, VA) and cultured in RPMI tissue culture medium supplemented with 10% fetal calf serum (FCS) in a humidified 5% CO2 incubator at 37° C. Recombinant human chemokine proteins TECK was obtained from R&D Systems (Minneapolis, MN). ChemoTX® chemotaxis microchambers were purchased from Neuro Probe (Gaithersburg, MD). CyQUANT® cell proliferation kits were purchased from Molecular Probes (Eugene, Oregon). Calcium indicator dye Fluo-4 AM was purchased from Molecular Devices (Mountain View, CA).
A serum chemotaxis assay was used to determine the efficacy of potential receptor antagonists at blocking the migration mediated through chemokine receptors, such as CCR(9). This assay was performed using the ChemoTX® microchamber system with a 5-μm pore-sized polycarbonate membrane. MOLT-4 cells were collected by centrifugation at 400×g at room temperature, then suspended at 50 million/ml in human serum, containing 50 mM HEPES (final pH of 7.2). The compound being tested or an equivalent volume of its solvent (DMSO) was then added to the cell/serum mixture at a final DMSO concentration of 0.125% (v/v), and this mixture was then incubated together at 37° C. for one hour. Separately, recombinant human TECK was diluted with chemotaxis buffer (HBSS+0.1% BSA), generally spanning a range from 0.1 nM to 500 nM, after which 29 μl of diluted chemokine was placed in the lower wells of the ChemoTX® plate. The 5-μm (pore size) polycarbonate membrane was placed onto the plate, and 20 μL of the cell/compound mixture was transferred onto each well of the membrane. The plates were incubated at 37° C. for 90 minutes, after which the polycarbonate membranes were removed and 5 μl of the DNA-intercalating agent CyQUANT (Invitrogen, Carlsbad, CA) was added to the lower wells. The amount of fluorescence, corresponding to the number of migrated cells, was measured using a Spectrafluor Plus plate reader (TECAN, San Jose, CA).
The A2 values were calculated from the following equation, comparing the efficacy of the test compound with that of the DMSO-only control at equi-active chemokine levels: Log(A2)=log[drug(M)]−log [(A′/A)−1]
where A reflects the potency of the agonist in the absence of antagonist and A′ reflects the potency of the agonist in the presence of antagonist at a given concentration of drug ([drug(M)]).
Molecule `Cc1cc(-n2nc(C)cc2NS(=O)(=O)c2ccc(C(C)(C)C)cc2)c2cccnc2c1` has an IC50 of 0.501 to 2.5 µM.
Work on `Cc1cc(NS(=O)(=O)c2ccc(C(C)C)cc2)n(-c2cccc3ncccc23)n1` yielded an IC50 of 0.501 to 2.5 µM.
Molecule `Cc1cc(NS(=O)(=O)c2ccc(C(C)(C)C)cc2)n(-c2ccc(F)c3ncccc23)n1` has an IC50 of 0.501 to 2.5 µM.
`Cc1cc(NS(=O)(=O)c2ccc(OCC(C)C)cc2)n(-c2cccc3ncccc23)n1` showed an IC50 of over 2.5 µM.
`Cc1cc(NS(=O)(=O)c2ccc(OC(C)C)cc2)n(-c2cccc3ncccc23)n1` showed an IC50 of 0.501 to 2.5 µM.
With `Cc1cc(NS(=O)(=O)c2ccc(C(C)(C)C)c(F)c2)n(-c2ccc(N)c3ncccc23)n1` the IC50 was 0.501 to 2.5 µM.
`CC(C)c1ccc(S(=O)(=O)Nc2cc(C(F)(F)F)nn2-c2cccc3cnccc23)cc1` was tested, and the IC50 was 0.501 to 2.5 µM.
`Cc1cc(NS(=O)(=O)c2ccc(C(C)C)cc2)n(-c2cccc3cnccc23)n1` was tested, and the IC50 was 0.501 to 2.5 µM.
`Cc1ccc2c(-n3nc(C)cc3NS(=O)(=O)c3ccc(C(C)(C)C)cc3)cccc2n1` gave an IC50 of under 0.5 µM.
With `Cc1cc(NS(=O)(=O)c2ccc(C(C)(C)C)cc2)n(-c2cccc3c(N)nccc23)n1` the IC50 was 0.501 to 2.5 µM.
`Cc1cc(NS(=O)(=O)c2ccc(C(C)(C)C)c(F)c2)n(-c2ccc(Br)c3ncccc23)n1` was tested, and the IC50 was under 0.5 µM.
`Cc1cc(NS(=O)(=O)c2ccc(C(C)(C)C)cc2)n(-c2cccc3cnccc23)n1` was tested, and the IC50 was 0.501 to 2.5 µM.
Work on `Cc1cc(NS(=O)(=O)c2ccc(C(C)(C)C)cc2)n(-c2nncc3ccccc23)n1` yielded an IC50 of 0.501 to 2.5 µM.
`CC(C)Oc1ccc(S(=O)(=O)Nc2cc(C(F)(F)F)nn2-c2cccc3ncccc23)cc1` gave an IC50 of over 2.5 µM.
With `CC(C)Oc1ccc(S(=O)(=O)Nc2cc(C(F)F)nn2-c2cccc3ncccc23)cc1` the IC50 was under 0.5 µM.
`CC(C)(C)c1ccc(S(=O)(=O)Nc2cc(C(F)F)nn2-c2cccc3ncccc23)cc1F` was tested, and the IC50 was 0.501 to 2.5 µM.
`Cc1cc(NS(=O)(=O)c2ccc(C(C)(C)C)cc2)n(-c2ccnc3ccccc23)n1` was tested, and the IC50 was 0.501 to 2.5 µM.
For `CC(C)(C)c1ccc(S(=O)(=O)Nc2cc(C(F)(F)F)nn2-c2cccc3ncccc23)cc1`, the IC50 was 0.501 to 2.5 µM.
`CC(C)(C)c1ccc(S(=O)(=O)Nc2cc(CF)nn2-c2cccc3ncccc23)cc1F` showed an IC50 of under 0.5 µM.
Work on `Cc1cc(NS(=O)(=O)c2cc(F)c(C(C)(C)C)c(F)c2)n(-c2cccc3ncccc23)n1` yielded an IC50 of under 0.5 µM.
For `CC(C)(C)c1ccc(S(=O)(=O)Nc2cc(C(F)F)nn2-c2cccc3ncccc23)cc1`, the IC50 was under 0.5 µM.
Work on `Cc1cc(-n2nc(C)cc2NS(=O)(=O)c2ccc(C(C)(C)C)cc2)c2ccccc2n1` yielded an IC50 of 0.501 to 2.5 µM.
`CCOc1ccc(-n2nc(C)cc2NS(=O)(=O)c2ccc(C(C)(C)C)cc2)c2cccnc12` showed an IC50 of 0.501 to 2.5 µM.
`Cc1cc(NS(=O)(=O)c2ccc(C(C)(C)C)cc2)n(-c2cccc3ncccc23)n1` gave an IC50 of under 0.5 µM.
Molecule `CC(C)c1ccc(S(=O)(=O)Nc2cc(C(F)(F)F)nn2-c2cccc3ncccc23)cc1` has an IC50 of 0.501 to 2.5 µM.
For `Cc1cc(NS(=O)(=O)c2ccc(C(C)(C)C)cc2)n(-c2cncc3ccccc23)n1`, the IC50 was 0.501 to 2.5 µM.
Work on `CC(C)(C)c1ccc(S(=O)(=O)Nc2cc(C#N)nn2-c2cccc3ncccc23)cc1` yielded an IC50 of 0.501 to 2.5 µM.
Work on `Cc1cc(NS(=O)(=O)c2ccc(C(C)(C)C)cc2)n(-c2ccc(C#N)c3ncccc23)n1` yielded an IC50 of 0.501 to 2.5 µM.
For `Cc1cc(NS(=O)(=O)c2ccc(C(C)(C)C)c(Cl)c2)n(-c2cccc3ncccc23)n1`, the IC50 was 0.501 to 2.5 µM.
For `CC(C)(C)c1ccc(S(=O)(=O)Nc2cc(CF)nn2-c2cccc3ncccc23)cc1`, the IC50 was under 0.5 µM.
`Cc1cc(NS(=O)(=O)c2ccc(C(C)(C)C)c(F)c2)n(-c2ccc(C#N)c3ncccc23)n1` was tested, and the IC50 was under 0.5 µM.
For `Cc1cc(NS(=O)(=O)c2ccc(C(C)(C)C)cc2)n(-c2cc(N)nc3ccccc23)n1`, the IC50 was 0.501 to 2.5 µM.
Work on `Cc1cc(NS(=O)(=O)c2ccc(C(C)(C)C)c(F)c2)n(-c2cccc3ncccc23)n1` yielded an IC50 of under 0.5 µM.
`COc1cnc(-n2nc(C)cc2NS(=O)(=O)c2ccc(C(C)(C)C)cc2)c2ccccc12` gave an IC50 of 0.501 to 2.5 µM.
For `Cc1cc(NS(=O)(=O)c2ccc(C(C)(C)C)cc2)n(-c2cnc(N)c3ccccc23)n1`, the IC50 was 0.501 to 2.5 µM.
Molecule `COCc1cc(NS(=O)(=O)c2ccc(C(C)(C)C)cc2)n(-c2cccc3ncccc23)n1` has an IC50 of under 0.5 µM.
`Cc1cc(NS(=O)(=O)c2ccc(OC(C)C)cc2)n(-c2cccc3cnccc23)n1` gave an IC50 of 0.501 to 2.5 µM.
Work on `Cc1cc(NS(=O)(=O)c2ccc(C(C)(C)C)cc2)n(-c2nccc3ncccc23)n1` yielded an IC50 of 0.501 to 2.5 µM.
`Cc1cc(NS(=O)(=O)c2ccc(C(C)(C)C)cc2)n(-c2cnnc3ccccc23)n1` showed an IC50 of 0.501 to 2.5 µM.
`Cc1cc(NS(=O)(=O)c2ccc(C(C)(C)C)cc2)n(-c2n[nH]c(=O)c3ccccc23)n1` showed an IC50 of 0.501 to 2.5 µM.
`Cc1cc(NS(=O)(=O)c2ccc(C(C)(C)C)cc2)n(-c2cccc3c2ccc[n+]3[O-])n1` was tested, and the IC50 was 0.501 to 2.5 µM.
`CC(C)Oc1ccc(S(=O)(=O)Nc2cc(C(F)(F)F)nn2-c2cccc3cnccc23)cc1` showed an IC50 of 0.501 to 2.5 µM.
With `COc1ccc(-n2nc(C)cc2NS(=O)(=O)c2ccc(C(C)(C)C)cc2)c2cccnc12` the IC50 was under 0.5 µM.
`Cc1cc(NS(=O)(=O)c2ccc(C(C)(C)C)cc2)n(-c2ccnc3cc(F)ccc23)n1` gave an IC50 of 0.501 to 2.5 µM.
`CCC(C)(C)c1ccc(S(=O)(=O)Nc2cc(C)nn2-c2cccc3ncccc23)cc1` showed an IC50 of 0.501 to 2.5 µM.
With `CC(C)(C)c1ccc(S(=O)(=O)Nc2ccnn2-c2cccc3ncccc23)cc1` the IC50 was over 2.5 µM.
For `Cc1cc(NS(=O)(=O)c2ccc(C(C)(C)C)cc2)n(-c2cccc3nc(N)ccc23)n1`, the IC50 was under 0.5 µM.
In the case of `Cc1cc(NS(=O)(=O)c2ccc(C(C)(C)C)cc2)n(-c2cccc3c[n+]([O-])ccc23)n1`, the IC50 is reported as over 2.5 µM.
For `Cc1cc(NS(=O)(=O)c2ccc(C(C)(C)C)cc2)n(-c2ccc(Br)c3ncccc23)n1`, the IC50 was 0.501 to 2.5 µM.
For `Cc1cc(NS(=O)(=O)c2ccc(C(C)(C)C)cc2)n(-c2nccc3ccccc23)n1`, the IC50 was 0.501 to 2.5 µM.
`COc1ccc(-n2nc(C)cc2NS(=O)(=O)c2ccc(C(C)(C)C)c(F)c2)c2cccnc12` was tested, and the IC50 was under 0.5 µM.
Molecule `Cc1cc(NS(=O)(=O)c2ccc(C(C)(C)C)cc2)n(-c2ncc(Cl)c3ccccc23)n1` has an IC50 of over 2.5 µM.
Work on `Cc1cc(NS(=O)(=O)c2ccc(OC(C)C)c(F)c2)n(-c2cccc3ncccc23)n1` yielded an IC50 of 0.501 to 2.5 µM.
Work on `CC(C)c1ccc(S(=O)(=O)Nc2cc(C(F)F)nn2-c2cccc3ncccc23)cc1` yielded an IC50 of 0.501 to 2.5 µM.
Molecule `Cc1cc(NS(=O)(=O)c2ccc(C(C)(C)C)cc2)n(-c2ccnc3c(F)cccc23)n1` has an IC50 of 0.501 to 2.5 µM.
Molecule `Cc1cc(NS(=O)(=O)c2ccc(OC(F)(F)F)cc2)n(-c2cccc3ncccc23)n1` has an IC50 of 0.501 to 2.5 µM.
With `Cc1cc(NS(=O)(=O)c2ccc(C(C)(C)C)cc2F)n(-c2cccc3ncccc23)n1` the IC50 was 0.501 to 2.5 µM.
`Cc1cc(NS(=O)(=O)c2ccc(C(C)(C)C)c(F)c2)n(-c2cccc3nc(N)ccc23)n1` gave an IC50 of under 0.5 µM.
`Cc1cc(NS(=O)(=O)c2ccc(C(C)(C)C)cc2)n(-c2ccc(C)c3ncccc23)n1` showed an IC50 of 0.501 to 2.5 µM.
With `Cc1cc(NS(=O)(=O)c2ccc(C(C)(C)C)cc2)n(-c2ccc(N)c3ncccc23)n1` the IC50 was under 0.5 µM.
For `Cc1cc(NS(=O)(=O)c2ccc(C(C)(C)C)cc2)n(-c2ccc(Cl)c3ncccc23)n1`, the IC50 was under 0.5 µM.
`CC(C)Oc1ccc(S(=O)(=O)Nc2cc(CF)nn2-c2cccc3ncccc23)cc1` showed an IC50 of 0.501 to 2.5 µM.

— patent publication US12611404B2, “Aza-aryl 1H-pyrazol-1-yl benzene sulfonamides” (ChemoCentryx, Inc., priority 2012, dated 2026)
